Reference: publication PMC3466195, “Potassium Acts as a GTPase-Activating Element on Each Nucleotide-Binding Domain of the Essential Bacillus subtilis EngA” (PLoS ONE, 2012)

What was measured:
[1] = molecular target: T1, GD1 (shortened B. subtilis EngA variant) (Bacillus subtilis, UniProt P50743); assay: Nucleotide binding monitored by intrinsic tryptophan fluorescence
T1 construct: two shortened EngA variants that only contain GD1 or GD2-KH; His-tag (from pET15b; purified on Ni-IDA) (N); made in house; host or cells: E. coli C41(DE3)
Protocol: (§1) Fluorescence measurements were performed essentially as described previously for the unmodified nucleotides or the N-methylanthraniloyl-GDP (MANT-GDP) analogue using a PTI QuantaMaster 4 spectrofluorimeter, [62]. Dissociation constants (K D) for nucleotides were calculated by monitoring intrinsic tryptophan fluorescence variation using 295 nm excitation wavelength, with a slit width of 2 nm, and scanning emission fluorescence between 310 and 400 nm (for the unmodified nucleotide) or 400 and 500 nm (for MANT-GDP), with a slit width of 4 nm. For the intrinsic tryptophan fluorescence, inner filter effect was corrected using N-Acetyltryptophanamide (NATA) as a reference. 1 µM NATA or 0.5 µM of YphC were mixed with 50 mM Tris/HCl pH 8, 2 mM MgCl2, NaCl or KCl and increasing amount of nucleotide (GDP, GMPPNP or MANT-GDP), as indicated in the figure legends. The fluorescence was normalized respective to the integrated value of the fluorescence peak obtained in the absence of unmodified nucleotide (between 310 and 400 nm) or MANT-GDP (between 400 and 500 nm). The data were fitted using the GraFit 5.0.11 software with the following equation: [drawing 1] where F is the relative fluorescence intensity in the presence of nucleotide, F min is the relative fluorescence in the absence of nucleotide, F max is the fluorescence intensity at saturating concentration of nucleotide, L is the nucleotide concentration, E is the protein concentration and K D is the dissociation constant of the protein-nucleotide complex.

[2] = molecular target: T2, GD2-KH (shortened B. subtilis EngA variant) (Bacillus subtilis, UniProt P50743); assay: as above
T2 construct: two shortened EngA variants that only contain GD1 or GD2-KH; His-tag (from pET15b; purified on Ni-IDA) (N); made in house; host or cells: E. coli C41(DE3)
Protocol: as §1

B. subtilis EngA [3] = molecular target: T3, B. subtilis EngA (Bacillus subtilis, UniProt P50743); assay: as above; details: read-out: KD
T3 construct: full-length EngA (named hereafter as EngA) and its two shortened EngA variants, GD1 and GD2-KH were overexpressed in E. coli; His-tag (from pET15b; purified on Ni-IDA) (N); made in house; host or cells: E. coli C41(DE3)
T3 sequence (P50743 1-436): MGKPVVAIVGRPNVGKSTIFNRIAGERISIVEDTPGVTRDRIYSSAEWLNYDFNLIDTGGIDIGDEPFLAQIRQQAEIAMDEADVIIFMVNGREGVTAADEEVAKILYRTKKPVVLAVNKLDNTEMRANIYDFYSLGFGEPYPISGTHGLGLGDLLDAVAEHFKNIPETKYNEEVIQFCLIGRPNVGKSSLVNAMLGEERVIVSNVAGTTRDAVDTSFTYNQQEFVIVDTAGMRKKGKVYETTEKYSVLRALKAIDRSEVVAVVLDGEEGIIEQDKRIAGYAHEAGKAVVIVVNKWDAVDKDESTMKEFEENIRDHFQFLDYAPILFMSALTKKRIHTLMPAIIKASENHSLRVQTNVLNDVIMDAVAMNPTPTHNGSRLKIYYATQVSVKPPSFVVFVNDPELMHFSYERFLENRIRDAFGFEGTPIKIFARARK
Protocol: as §1

GD2-KH = molecular target: T4, GD2-KH (Bacillus subtilis, UniProt P50743); assay: Fluorescence-based Thermal Shift Assay (TSA); assay type: binding; details: GD2-KH with 1 mM nucleotide; no effector Tm 42.8
T4 construct: two shortened EngA variants that only contain GD1 or GD2-KH; His-tag (from pET15b; purified on Ni-IDA) (N); made in house; host or cells: E. coli C41(DE3)
T4 sequence (P50743 173-436): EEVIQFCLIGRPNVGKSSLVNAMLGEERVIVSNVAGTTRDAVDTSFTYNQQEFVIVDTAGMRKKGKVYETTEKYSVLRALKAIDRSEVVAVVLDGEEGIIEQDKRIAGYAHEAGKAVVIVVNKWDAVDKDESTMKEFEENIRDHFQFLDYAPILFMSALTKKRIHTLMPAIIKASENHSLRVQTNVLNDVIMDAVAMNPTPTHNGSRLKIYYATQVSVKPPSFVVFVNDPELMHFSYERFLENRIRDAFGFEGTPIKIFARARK
Protocol: (§2) Assays were performed into a 96-well thin-wall PCR plate (BioRad) using an IQ5 96-well format real-time PCR instrument (Bio-Rad) over a temperature range from 20°C to 90°C with temperature increments of 0.2°C [64]. Assay samples (23 µl) contained 50 mM Tris/HCl pH 8, 0.5 mg/ml of EngA or 1.5 mg/ml of GD1 or GD2-KH, and concentration of salt and/or nucleotides as indicated, and 2 µl of SYPRO Orange solution (Molecular Probes, Eugene, OR, 500x in DMSO diluted 5 times in water) was added. The plates were heated and changes in fluorescence for the environmentally sensitive dye SYPRO Orange were monitored through a charge-coupled device (CCD) camera. The melting temperature (Tm) values for each protein were determined graphically from the fluorescence first derivative of the melting curves. The wavelengths for excitation and emission were 470 nm and 570 nm, respectively.

EngA = molecular target: T5, EngA (Bacillus subtilis, UniProt P50743); assay: Fluorescence-based Thermal Shift Assay (TSA); assay type: binding; details: EngA with 1 mM nucleotide; no effector Tm 41.5
T5 construct: full-length EngA (named hereafter as EngA) and its two shortened EngA variants, GD1 and GD2-KH were overexpressed in E. coli; His-tag (from pET15b; purified on Ni-IDA) (N); made in house; host or cells: E. coli C41(DE3)
T5 sequence (P50743 1-436): T3 sequence (P50743 1-436)
Protocol: as §2

GD1 = molecular target: T6, GD1 (Bacillus subtilis, UniProt P50743); assay: Fluorescence-based Thermal Shift Assay (TSA); assay type: binding; details: GD1 with 1 mM nucleotide; no effector Tm 51
T6 construct: two shortened EngA variants that only contain GD1 or GD2-KH; His-tag (from pET15b; purified on Ni-IDA) (N); made in house; host or cells: E. coli C41(DE3)
T6 sequence (P50743 4-167 limits assumed): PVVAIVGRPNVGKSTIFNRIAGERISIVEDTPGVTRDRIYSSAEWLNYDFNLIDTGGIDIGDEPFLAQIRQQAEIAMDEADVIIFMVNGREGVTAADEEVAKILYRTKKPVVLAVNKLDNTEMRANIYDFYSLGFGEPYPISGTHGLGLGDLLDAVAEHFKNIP
Protocol: as §2

B. subtilis EngA [4] = molecular target: T7, B. subtilis EngA (Bacillus subtilis, UniProt P50743); assay type: biochemical; details: K+ replaced by other monovalent cation, 1 mM GTP
T7 construct: full-length EngA (named hereafter as EngA) and its two shortened EngA variants, GD1 and GD2-KH were overexpressed in E. coli; His-tag (from pET15b; purified on Ni-IDA) (N); made in house; host or cells: E. coli C41(DE3)
Protocol: GTPase activities were determined using a coupled-enzymatic assay containing pyruvate kinase and lactate dehydrogenase as previously described. The proteins (2 µM or 8 µM of EngA in the presence of KCl or NaCl, respectively, and 4 µM for GD1 and 12.5 µM for GD2-KH) and the coupled assay system containing 50 mM Tris/HCl pH 8, 4 mM phosphoenol pyruvate, 0.4 mM NADH, 1 mM MgCl2, 30 µg pyruvate kinase and 15 µg lactate dehydrogenase, were mixed into a quartz cuvette (final volume of 750 µl) in the presence of GTP (up to 1 mM) and salts, either KCl or NaCl, as indicated in the figure legends. When the GTPase and XTPase activities of the wild-type EngA and the single point mutants were studied (Fig. 7), the assay medium (final volume of 500 µl) contained 3 mM MgCl2 and the pyruvate kinase was increased to 120 µg to ensure an immediate conversion of XDP back into XTP. The reaction was started by adding 3.2 µM or 0.8 µM of wild-type EngA or single point mutants in the absence or presence of 300 mM K^+, respectively. GTP or XTP hydrolysis was monitored by following the change in absorbance at 340 nm upon conversion of NADH to NAD^+, for 10 min at 37°C, using either a Hitachi U3350 or a Safas UVmc^2 spectrophotometer. The slope measured (ΔDO/min) was used to calculate the activity of the protein taking into account the εNADH340nm = 6220 l.mol^−1.cm^−1. Control experiments were systematically performed in the absence of nucleotides (protein alone) or in the absence of proteins (nucleotides alone) and the activities measured in all cases were negligible. Between many different EngA preparations, the specific activities measured at 1 mM GTP varied between 100–130 nmoles/min/mg protein.

B. subtilis EngA [5] = molecular target: T3, B. subtilis EngA; assay: Fluorescence resonance energy transfer between tryptophan residues and MANT moiety; assay type: binding; details: FRET Trp to MANT
Protocol: as §1, with “1 µM NATA or 0.5 µM of YphC were mixed with 50 mM Tris/HCl pH 8, 2 mM MgCl2, NaCl or KCl and increasing amount of nucleotide (GDP, GMPPNP or MANT-GDP), as indicated in the figure legends.” left out

Question: What does the source list for Nc1nc2c(ncn2[C@@H]2O[C@H](COP(=O)(O)OP(=O)(O)NP(=O)(O)O)[C@@H](O)[C@H]2O)c(=O)[nH]1 [GMPPNP]?
Answer: Kd ([1]; GD1, 300 mM KCl): 35.7 ± 4.9 µM; Kd ([1]; GD1, 300 mM NaCl): 17.8 ± 2.4 µM; Kd ([2]; 300 mM KCl): 6.8 ± 2 µM; Kd ([2]; 300 mM NaCl): 15.2 ± 1.3 µM; Kd (B. subtilis EngA [3]; 300 mM KCl): 18.8 ± 2.8 µM; Kd (B. subtilis EngA [3]; 300 mM NaCl): 16.5 ± 3.7 µM; Kd (B. subtilis EngA [3]; no salt (absence of K+), 2 mM MgCl2, 25°C): 25.7 ± 2.8 µM; Tm (GD2-KH): 48.3 °C; Tm (EngA): 48.8 °C; Tm (GD1): 55.5 °C

Question: [Na+] [sodium] was tested. Which “effect of salt on the GTPase activity of EngA” value (B. subtilis EngA [4]) did it give?
Answer: The value was “no effect”.

Question: For CNc1ccccc1C(=O)O[C@H]1[C@@H](O)[C@H](n2cnc3c(=O)[nH]c(N)nc32)O[C@@H]1COP(=O)(O)OP(=O)(O)O [mant-GDP, N-methylanthraniloyl-GDP], which Kd (B. subtilis EngA [5]; 300 mM KCl) is on record?
Answer: Its Kd is 2.9 ± 0.2 µM.

Question: What about the Kd (B. subtilis EngA [5]; no salt) of the same compound?
Answer: Its Kd is 3.1 ± 0.2 µM.
